Measurements from ChEMBL document CHEMBL3885861, “Open TG-GATES”.

Organism: Rattus norvegicus
Assay: Open TG-GATES - Regimen: Single
Assay type: toxicity, organism-based, Sprague-Dawley
Design: regimen Single, gender Male, age 6 weeks
Conditions: in vivo, po, 10 mg/kg, route gavage, dose level Low; for APTT / Bas / Eos / Fbg / Hb / Ht / Lym / MCH / MCHC / MCV / Mono / Neu / PT / Plat / RBC / Ret / WBC: tissue Blood; for KIDNEY_L / KIDNEY_R / KIDNEY_TOTAL: tissue Kidney; for LIVER: tissue Liver; for A/G / ALP / ALT / AST / BUN / CRE / Ca / Cl / DBIL / GLC / IP / K / LDH / Na / PL / RALB / TBIL / TC / TG / TP / gamma-GTP: tissue Plasma

OCCOCCN1CCN(C(c2ccccc2)c2ccc(Cl)cc2)CC1 (configuration not stated) [HYDROXYZINE] gave a TERMINAL_BW (3 h) of 192.7 g, an APTT (3 h) of 15.4 s and a Bas (3 h) of 0.4%. For the same molecule, the Eos (3 h) was 0.6%, the Fbg (3 h) was 276.8 mg/dL and the Hb (3 h) was 12.7 g/dL. The Ht (3 h) was 39.3%, the Lym (3 h) was 80.6% and the MCH (3 h) was 21.7 pg. It also gave an MCHC (3 h) of 32.3%, an MCV (3 h) of 67 fL and a Mono (3 h) of 2.6%. It also gave a Neu (3 h) of 15.2%, a PT (3 h) of 15.1 s and a Plat (3 h) of 113 x10_4/uL. For the same molecule, the RBC (3 h) was 587.8 x10_4/ul, the Ret (3 h) was 9.1% and the WBC (3 h) was 89.2 x10_2/uL. The KIDNEY_L (3 h) was 0.8 g, the KIDNEY_R (3 h) was 0.9 g and the KIDNEY_TOTAL (3 h) was 1.7 g. It also gave an LIVER (3 h) of 9 g, an A/G (3 h) of 0.8 and an ALP (3 h) of 1362.6 IU/L. It also gave an ALT (3 h) of 43.4 IU/L, an AST (3 h) of 75.6 IU/L and a BUN (3 h) of 11.2 mg/dL. The CRE (3 h) was 0.2 mg/dL, the Ca (3 h) was 11.1 mg/dL and the Cl (3 h) was 105.2 meq/L. For the same molecule, the DBIL (3 h) was 0.016 mg/dL, the GLC (3 h) was 176.6 mg/dL and the IP (3 h) was 9.4 mg/dL. For the same molecule, the K (3 h) was 4.4 meq/L, the LDH (3 h) was 80.4 IU/L and the Na (3 h) was 141.6 meq/L. The PL (3 h) was 137.2 mg/dL, the RALB (3 h) was 2.4 g/dL and the TBIL (3 h) was 0.064 mg/dL. For the same molecule, the TC (3 h) was 74.6 mg/dL, the TG (3 h) was 46.2 mg/dL and the TP (3 h) was 5.3 g/dL. It also gave a gamma-GTP (3 h) of 1 IU/L, a TERMINAL_BW (6 h) of 193.5 g and an APTT (6 h) of 15.7 s. It also gave a Bas (6 h) of 0%, an Eos (6 h) of 0.8% and a Fbg (6 h) of 285.2 mg/dL. For the same molecule, the Hb (6 h) was 12.8 g/dL, the Ht (6 h) was 40.3% and the Lym (6 h) was 75.8%. For the same molecule, the MCH (6 h) was 21.3 pg, the MCHC (6 h) was 31.8% and the MCV (6 h) was 67.1 fL. The Mono (6 h) was 2.6%, the Neu (6 h) was 20.2% and the PT (6 h) was 15.2 s. The Plat (6 h) was 114.7 x10_4/uL, the RBC (6 h) was 601.2 x10_4/ul and the Ret (6 h) was 9.2%. For the same molecule, the WBC (6 h) was 77.4 x10_2/uL, the KIDNEY_L (6 h) was 0.9 g and the KIDNEY_R (6 h) was 0.9 g. The KIDNEY_TOTAL (6 h) was 1.7 g, the LIVER (6 h) was 8.1 g and the A/G (6 h) was 0.9. It also gave an ALP (6 h) of 1554.6 IU/L, an ALT (6 h) of 46.8 IU/L and an AST (6 h) of 83.2 IU/L. The BUN (6 h) was 9 mg/dL, the CRE (6 h) was 0.2 mg/dL and the Ca (6 h) was 10.9 mg/dL. It also gave a Cl (6 h) of 106.2 meq/L, a DBIL (6 h) of 0.006 mg/dL and a GLC (6 h) of 175.2 mg/dL. It also gave an IP (6 h) of 10.1 mg/dL, a K (6 h) of 4.3 meq/L and an LDH (6 h) of 80.2 IU/L. The Na (6 h) was 142.8 meq/L, the PL (6 h) was 139.4 mg/dL and the RALB (6 h) was 2.5 g/dL. The TBIL (6 h) was 0.062 mg/dL, the TC (6 h) was 78.8 mg/dL and the TG (6 h) was 32.4 mg/dL. For the same molecule, the TP (6 h) was 5.3 g/dL, the gamma-GTP (6 h) was 0.8 IU/L and the TERMINAL_BW (9 h) was 190.5 g. For the same molecule, the APTT (9 h) was 16.2 s, the Bas (9 h) was 0% and the Eos (9 h) was 0.4%. For the same molecule, the Fbg (9 h) was 288.8 mg/dL, the Hb (9 h) was 12.8 g/dL and the Ht (9 h) was 39.6%. It also gave a Lym (9 h) of 71.2%, an MCH (9 h) of 21.3 pg and an MCHC (9 h) of 32.3%. For the same molecule, the MCV (9 h) was 65.7 fL, the Mono (9 h) was 3% and the Neu (9 h) was 24%. The PT (9 h) was 15.2 s, the Plat (9 h) was 118.3 x10_4/uL and the RBC (9 h) was 601.8 x10_4/ul. It also gave a Ret (9 h) of 8.2%, a WBC (9 h) of 63.8 x10_2/uL and a KIDNEY_L (9 h) of 0.9 g. The KIDNEY_R (9 h) was 0.8 g, the KIDNEY_TOTAL (9 h) was 1.7 g and the LIVER (9 h) was 7.9 g. The A/G (9 h) was 0.8, the ALP (9 h) was 1271.4 IU/L and the ALT (9 h) was 37.4 IU/L. It also gave an AST (9 h) of 70.2 IU/L, a BUN (9 h) of 9.2 mg/dL and a CRE (9 h) of 0.2 mg/dL. It also gave a Ca (9 h) of 10.7 mg/dL, a Cl (9 h) of 106.8 meq/L and a DBIL (9 h) of 0.012 mg/dL. The GLC (9 h) was 184.6 mg/dL, the IP (9 h) was 10.2 mg/dL and the K (9 h) was 4.1 meq/L. The LDH (9 h) was 78.8 IU/L, the Na (9 h) was 142.4 meq/L and the PL (9 h) was 139.4 mg/dL. The RALB (9 h) was 2.5 g/dL, the TBIL (9 h) was 0.062 mg/dL and the TC (9 h) was 81.4 mg/dL. The TG (9 h) was 29.4 mg/dL, the TP (9 h) was 5.5 g/dL and the gamma-GTP (9 h) was 1 IU/L. For the same molecule, the TERMINAL_BW (24 h) was 210.3 g, the APTT (24 h) was 15 s and the Bas (24 h) was 0%. The Eos (24 h) was 1%, the Fbg (24 h) was 276.8 mg/dL and the Hb (24 h) was 12.7 g/dL. It also gave a Ht (24 h) of 39.6%, a Lym (24 h) of 73.4% and an MCH (24 h) of 21.9 pg. For the same molecule, the MCHC (24 h) was 32%, the MCV (24 h) was 68.5 fL and the Mono (24 h) was 2.8%. It also gave a Neu (24 h) of 22.6%, a PT (24 h) of 16 s and a Plat (24 h) of 121.3 x10_4/uL. For the same molecule, the RBC (24 h) was 578.6 x10_4/ul, the Ret (24 h) was 8.8% and the WBC (24 h) was 79 x10_2/uL. The KIDNEY_L (24 h) was 0.9 g, the KIDNEY_R (24 h) was 0.9 g and the KIDNEY_TOTAL (24 h) was 1.8 g. It also gave an LIVER (24 h) of 10.1 g, an A/G (24 h) of 0.9 and an ALP (24 h) of 1714.2 IU/L. The ALT (24 h) was 45.2 IU/L, the AST (24 h) was 71.4 IU/L and the BUN (24 h) was 14.2 mg/dL. For the same molecule, the CRE (24 h) was 0.2 mg/dL, the Ca (24 h) was 11.4 mg/dL and the Cl (24 h) was 106 meq/L. The DBIL (24 h) was 0.02 mg/dL, the GLC (24 h) was 177.6 mg/dL and the IP (24 h) was 8.2 mg/dL. The K (24 h) was 4.3 meq/L, the LDH (24 h) was 104.2 IU/L and the Na (24 h) was 142.8 meq/L. The PL (24 h) was 147.4 mg/dL, the RALB (24 h) was 2.6 g/dL and the TBIL (24 h) was 0.058 mg/dL. The TC (24 h) was 77.2 mg/dL, the TG (24 h) was 69.4 mg/dL and the TP (24 h) was 5.6 g/dL. The gamma-GTP (24 h) was 1 IU/L.
